# Data from the supplement of paper PMC13380429.
# Columns and labels:
# Details in all cases: 72 h
# Caco-2 [1] = assay: cell viability relative to DMSO; higher = less toxic
# Calu-3 [2] = assay: as above
# HepG2 [3] = assay: as above
# U2OS [4] = assay: as above
# Vero E6 [5] = assay: as above
# Caco-2 [6] = assay: relative viability EC50 (midpoint between 100% and the lowest measured viability); higher = less toxic
# Calu-3 [7] = assay: as above
# HepG2 [8] = assay: as above
# U2OS [9] = assay: as above
# Vero E6 [10] = assay: as above
# Caco-2 [11] = assay: drug sensitivity score (DSS) for viability; higher = more toxic; extreme values may be limits of the assay
# Calu-3 [12] = assay: as above
# HepG2 [13] = assay: as above
# U2OS [14] = assay: as above
# Vero E6 [15] = assay: as above
Structure (SMILES),cell viability (Caco-2 [1]; 1 nM) [%],cell viability (Caco-2 [1]; 10 nM) [%],cell viability (Caco-2 [1]; 100 nM) [%],cell viability (Caco-2 [1]; 1000 nM) [%],cell viability (Caco-2 [1]; 10000 nM) [%],cell viability (Calu-3 [2]; 1 nM) [%],cell viability (Calu-3 [2]; 10 nM) [%],cell viability (Calu-3 [2]; 100 nM) [%],cell viability (Calu-3 [2]; 1000 nM) [%],cell viability (Calu-3 [2]; 10000 nM) [%],cell viability (HepG2 [3]; 1 nM) [%],cell viability (HepG2 [3]; 10 nM) [%],cell viability (HepG2 [3]; 100 nM) [%],cell viability (HepG2 [3]; 1000 nM) [%],cell viability (HepG2 [3]; 10000 nM) [%],cell viability (U2OS [4]; 1 nM) [%],cell viability (U2OS [4]; 10 nM) [%],cell viability (U2OS [4]; 100 nM) [%],cell viability (U2OS [4]; 1000 nM) [%],cell viability (U2OS [4]; 10000 nM) [%],cell viability (Vero E6 [5]; 1 nM) [%],cell viability (Vero E6 [5]; 10 nM) [%],cell viability (Vero E6 [5]; 100 nM) [%],cell viability (Vero E6 [5]; 1000 nM) [%],cell viability (Vero E6 [5]; 10000 nM) [%],relative viability EC50 (Caco-2 [6]) [µM],relative viability EC50 (Calu-3 [7]) [µM],relative viability EC50 (HepG2 [8]) [µM],relative viability EC50 (U2OS [9]) [µM],relative viability EC50 (Vero E6 [10]) [µM],drug sensitivity score (Caco-2 [11]),drug sensitivity score (Calu-3 [12]),drug sensitivity score (HepG2 [13]),drug sensitivity score (U2OS [14]),drug sensitivity score (Vero E6 [15])
CCOC(=O)Nc1ccc2c(c1)N(C(=O)CCN1CCOCC1)c1ccccc1S2 [moracizine],101,109,96.3,96.8,80.8,103,95.3,98.8,95.3,98.3,94.6,92.6,97.8,91.6,99.4,98.4,104,101,99,96.6,97.1,101,96.9,98.8,96.2,> 10,> 10,> 10,> 10,> 10,0.9,0,0,0,0
CN1CCOC(c2ccccc2)c2ccccc2C1 (stereo not given) [nefopam],86.6,102,95.1,99.5,91.9,105,108,96.7,91,101,95.8,104,96.3,101,106,104,99.3,105,100,98.7,95.9,103,98.8,102,95.1,> 10,> 10,> 10,> 10,> 10,0,0,0,0,0
CC(=O)Nc1ncc([N+](=O)[O-])s1 [nithiamide],96.7,97.8,103,105,94.1,97.5,98.2,102,110,101,108,91.7,95.4,92.1,96.3,99.2,104,97.8,103,102,101,99.5,100,93.4,98,> 10,> 10,> 10,> 10,> 10,0,0,0,0,0
NC(=O)N/N=C/c1ccc([N+](=O)[O-])o1 [nitrofurazone],93.8,101,98.8,101,87.2,104,96.9,105,89,95.1,92.5,101,110,108,87.4,101,98.1,103,100,103,96.8,101,95.1,97.7,106,> 10,> 10,> 10,> 10,> 10,0.1,0.2,0,0,0
